In the NIST ThermoML archive (doi:10.1016/j.fluid.2014.04.019):
Numbers after ± are expanded uncertainties.

Assay: xn = mol fraction of the nth substance listed
Settings: 101 kPa, Liquid

SMILES: OCCOCCO [diethylene glycol] + CN(C)C=O
- kinematic viscosity (298.15 K, x2 = 0): 2.76e-05 ± 1.2e-06 m2/s
- mass density (298.15 K, x2 = 0): 1113 ± 2.9 kg/m3
- kinematic viscosity (298.15 K, x2 = 0.0714): 1.96e-05 ± 8e-07 m2/s
- mass density (298.15 K, x2 = 0.0714): 1104.1 ± 2.9 kg/m3
- kinematic viscosity (298.15 K, x2 = 0.1393): 1.57e-05 ± 7e-07 m2/s
- mass density (298.15 K, x2 = 0.1393): 1094.9 ± 2.8 kg/m3
- kinematic viscosity (298.15 K, x2 = 0.2041): 1.26e-05 ± 6e-07 m2/s
- mass density (298.15 K, x2 = 0.2041): 1085.9 ± 2.8 kg/m3
- kinematic viscosity (298.15 K, x2 = 0.2683): 1.02e-05 ± 5e-07 m2/s
- mass density (298.15 K, x2 = 0.2683): 1076.7 ± 2.8 kg/m3
- kinematic viscosity (298.15 K, x2 = 0.3266): 8.33e-06 ± 4e-07 m2/s
- mass density (298.15 K, x2 = 0.3266): 1068.1 ± 2.8 kg/m3
- kinematic viscosity (298.15 K, x2 = 0.3834): 6.84e-06 ± 3.4e-07 m2/s
- mass density (298.15 K, x2 = 0.3834): 1059.4 ± 2.7 kg/m3
- kinematic viscosity (298.15 K, x2 = 0.4384): 5.66e-06 ± 3e-07 m2/s
- mass density (298.15 K, x2 = 0.4384): 1050.9 ± 2.7 kg/m3
- kinematic viscosity (298.15 K, x2 = 0.4917): 4.71e-06 ± 2.6e-07 m2/s
- mass density (298.15 K, x2 = 0.4917): 1042.3 ± 2.7 kg/m3
- kinematic viscosity (298.15 K, x2 = 0.5429): 3.94e-06 ± 2.2e-07 m2/s
- mass density (298.15 K, x2 = 0.5429): 1033.8 ± 2.7 kg/m3
- kinematic viscosity (298.15 K, x2 = 0.5865): 3.4e-06 ± 1.9e-07 m2/s
- mass density (298.15 K, x2 = 0.5865): 1026.4 ± 2.6 kg/m3
- kinematic viscosity (298.15 K, x2 = 0.6394): 2.83e-06 ± 1.6e-07 m2/s
- mass density (298.15 K, x2 = 0.6394): 1017.2 ± 2.6 kg/m3
- kinematic viscosity (298.15 K, x2 = 0.6819): 2.44e-06 ± 1.4e-07 m2/s
- mass density (298.15 K, x2 = 0.6819): 1009.5 ± 2.6 kg/m3
- kinematic viscosity (298.15 K, x2 = 0.7294): 2.08e-06 ± 1.2e-07 m2/s
- mass density (298.15 K, x2 = 0.7294): 1000.7 ± 2.6 kg/m3
- kinematic viscosity (298.15 K, x2 = 0.7721): 1.8e-06 ± 1e-07 m2/s
- mass density (298.15 K, x2 = 0.7721): 992.5 ± 2.5 kg/m3
- kinematic viscosity (298.15 K, x2 = 0.813): 1.57e-06 ± 9e-08 m2/s
- mass density (298.15 K, x2 = 0.813): 984.5 ± 2.5 kg/m3
- kinematic viscosity (298.15 K, x2 = 0.8531): 1.38e-06 ± 8e-08 m2/s
- mass density (298.15 K, x2 = 0.8531): 976.4 ± 2.5 kg/m3
- kinematic viscosity (298.15 K, x2 = 0.891): 1.22e-06 ± 7e-08 m2/s
- mass density (298.15 K, x2 = 0.891): 968.5 ± 2.5 kg/m3
- kinematic viscosity (298.15 K, x2 = 0.9288): 1.08e-06 ± 7e-08 m2/s
- mass density (298.15 K, x2 = 0.9288): 960.2 ± 2.4 kg/m3
- kinematic viscosity (298.15 K, x2 = 0.9648): 9.67e-07 ± 6e-08 m2/s
- mass density (298.15 K, x2 = 0.9648): 952.2 ± 2.4 kg/m3
- kinematic viscosity (303.15 K, x2 = 0): 2.13e-05 ± 9e-07 m2/s
- mass density (303.15 K, x2 = 0): 1109.2 ± 3 kg/m3
- kinematic viscosity (303.15 K, x2 = 0.0714): 1.53e-05 ± 7e-07 m2/s
- mass density (303.15 K, x2 = 0.0714): 1100 ± 3 kg/m3
- kinematic viscosity (303.15 K, x2 = 0.1393): 1.24e-05 ± 6e-07 m2/s
- mass density (303.15 K, x2 = 0.1393): 1090.8 ± 2.9 kg/m3
- kinematic viscosity (303.15 K, x2 = 0.2041): 1.01e-05 ± 5e-07 m2/s
- mass density (303.15 K, x2 = 0.2041): 1081.9 ± 2.9 kg/m3
- kinematic viscosity (303.15 K, x2 = 0.2683): 8.29e-06 ± 4e-07 m2/s
- mass density (303.15 K, x2 = 0.2683): 1072.6 ± 2.9 kg/m3
- kinematic viscosity (303.15 K, x2 = 0.3266): 6.84e-06 ± 3.4e-07 m2/s
- mass density (303.15 K, x2 = 0.3266): 1063.9 ± 2.9 kg/m3
- kinematic viscosity (303.15 K, x2 = 0.3834): 5.68e-06 ± 3e-07 m2/s
- mass density (303.15 K, x2 = 0.3834): 1055.2 ± 2.8 kg/m3
- kinematic viscosity (303.15 K, x2 = 0.4384): 4.76e-06 ± 2.6e-07 m2/s
- mass density (303.15 K, x2 = 0.4384): 1046.5 ± 2.8 kg/m3
- kinematic viscosity (303.15 K, x2 = 0.4917): 4e-06 ± 2.2e-07 m2/s
- mass density (303.15 K, x2 = 0.4917): 1037.9 ± 2.8 kg/m3
- kinematic viscosity (303.15 K, x2 = 0.5429): 3.38e-06 ± 1.9e-07 m2/s
- mass density (303.15 K, x2 = 0.5429): 1029.4 ± 2.8 kg/m3
- kinematic viscosity (303.15 K, x2 = 0.5865): 2.93e-06 ± 1.6e-07 m2/s
- mass density (303.15 K, x2 = 0.5865): 1022 ± 2.7 kg/m3
- kinematic viscosity (303.15 K, x2 = 0.6394): 2.47e-06 ± 1.4e-07 m2/s
- mass density (303.15 K, x2 = 0.6394): 1012.7 ± 2.7 kg/m3
- kinematic viscosity (303.15 K, x2 = 0.6819): 2.15e-06 ± 1.2e-07 m2/s
- mass density (303.15 K, x2 = 0.6819): 1005 ± 2.7 kg/m3
- kinematic viscosity (303.15 K, x2 = 0.7294): 1.85e-06 ± 1.1e-07 m2/s
- mass density (303.15 K, x2 = 0.7294): 996.1 ± 2.7 kg/m3
- kinematic viscosity (303.15 K, x2 = 0.7721): 1.62e-06 ± 1e-07 m2/s
- mass density (303.15 K, x2 = 0.7721): 987.9 ± 2.6 kg/m3
- kinematic viscosity (303.15 K, x2 = 0.813): 1.42e-06 ± 8e-08 m2/s
- mass density (303.15 K, x2 = 0.813): 979.7 ± 2.6 kg/m3
- kinematic viscosity (303.15 K, x2 = 0.8531): 1.25e-06 ± 8e-08 m2/s
- mass density (303.15 K, x2 = 0.8531): 971.5 ± 2.6 kg/m3
- kinematic viscosity (303.15 K, x2 = 0.891): 1.12e-06 ± 7e-08 m2/s
- mass density (303.15 K, x2 = 0.891): 963.6 ± 2.6 kg/m3
- kinematic viscosity (303.15 K, x2 = 0.9288): 1e-06 ± 6e-08 m2/s
- mass density (303.15 K, x2 = 0.9288): 955.4 ± 2.5 kg/m3
- kinematic viscosity (303.15 K, x2 = 0.9648): 9.04e-07 ± 5.7e-08 m2/s
- mass density (303.15 K, x2 = 0.9648): 947.6 ± 2.5 kg/m3
- kinematic viscosity (308.15 K, x2 = 0): 1.68e-05 ± 7e-07 m2/s
- mass density (308.15 K, x2 = 0): 1106.1 ± 3.1 kg/m3
- kinematic viscosity (308.15 K, x2 = 0.0714): 1.19e-05 ± 5e-07 m2/s
- mass density (308.15 K, x2 = 0.0714): 1096.7 ± 3.1 kg/m3
- kinematic viscosity (308.15 K, x2 = 0.1393): 9.67e-06 ± 4.5e-07 m2/s
- mass density (308.15 K, x2 = 0.1393): 1087.3 ± 3 kg/m3
- kinematic viscosity (308.15 K, x2 = 0.2041): 8.08e-06 ± 3.9e-07 m2/s
- mass density (308.15 K, x2 = 0.2041): 1078.2 ± 3 kg/m3
- kinematic viscosity (308.15 K, x2 = 0.2683): 6.7e-06 ± 3.4e-07 m2/s
- mass density (308.15 K, x2 = 0.2683): 1068.7 ± 3 kg/m3
- kinematic viscosity (308.15 K, x2 = 0.3266): 5.59e-06 ± 2.9e-07 m2/s
- mass density (308.15 K, x2 = 0.3266): 1059.9 ± 3 kg/m3
- kinematic viscosity (308.15 K, x2 = 0.3834): 4.69e-06 ± 2.6e-07 m2/s
- mass density (308.15 K, x2 = 0.3834): 1051 ± 2.9 kg/m3
- kinematic viscosity (308.15 K, x2 = 0.4384): 3.98e-06 ± 2.2e-07 m2/s
- mass density (308.15 K, x2 = 0.4384): 1042.2 ± 2.9 kg/m3
- kinematic viscosity (308.15 K, x2 = 0.4917): 3.38e-06 ± 1.9e-07 m2/s
- mass density (308.15 K, x2 = 0.4917): 1033.5 ± 2.9 kg/m3
- kinematic viscosity (308.15 K, x2 = 0.5429): 2.88e-06 ± 1.6e-07 m2/s
- mass density (308.15 K, x2 = 0.5429): 1024.8 ± 2.9 kg/m3
